Experimental data reported in ChEMBL document CHEMBL6109176, “Drug-like Antagonists of P2Y Receptor Subtypes: An Update” (J Med Chem, 2025).
One block for each molecule: values may come before it.

Legend:
P2Y purinoceptor 12 [1] = molecular target: T1, P2Y purinoceptor 12 (Homo sapiens, UniProt Q9H244); assay: Inhibition of P2Y12R (unknown origin) by HTS assay
P2Y purinoceptor 1 [2] = molecular target: T2, P2Y purinoceptor 1 (Homo sapiens, UniProt P47900); assay: inhibition of P2Y1R (unknown origin)
T2 sequence (P47900 whole entry): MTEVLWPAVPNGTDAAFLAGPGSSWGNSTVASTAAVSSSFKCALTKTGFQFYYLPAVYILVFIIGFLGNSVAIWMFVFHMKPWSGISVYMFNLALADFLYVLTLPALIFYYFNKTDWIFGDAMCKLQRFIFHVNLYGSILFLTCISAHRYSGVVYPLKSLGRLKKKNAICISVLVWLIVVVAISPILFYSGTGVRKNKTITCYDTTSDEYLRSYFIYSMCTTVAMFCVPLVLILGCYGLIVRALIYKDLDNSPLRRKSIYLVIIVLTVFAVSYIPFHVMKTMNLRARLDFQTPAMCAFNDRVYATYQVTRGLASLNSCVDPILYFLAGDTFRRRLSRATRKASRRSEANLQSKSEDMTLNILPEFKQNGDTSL

P2Y purinoceptor 1 [3] = molecular target: T2, P2Y purinoceptor 1; assay: Binding affinity yo human P2Y1R extracted from baculovirus infected Sf9 cells assessed as inhibition constant incubated for 30 mins
P2Y purinoceptor 2 = P2Y purinoceptor 2 (Homo sapiens, UniProt P41231); assay: Antagonist activity at human P2Y2R stably expressed in 1321N1 cells assessed as UTP-induced Ca2+ accumulation preincubated with compound for 30 mins followed by UTP addition by […]; assay type: functional, cell-based
Sequence of P2Y purinoceptor 2 (P41231 whole entry): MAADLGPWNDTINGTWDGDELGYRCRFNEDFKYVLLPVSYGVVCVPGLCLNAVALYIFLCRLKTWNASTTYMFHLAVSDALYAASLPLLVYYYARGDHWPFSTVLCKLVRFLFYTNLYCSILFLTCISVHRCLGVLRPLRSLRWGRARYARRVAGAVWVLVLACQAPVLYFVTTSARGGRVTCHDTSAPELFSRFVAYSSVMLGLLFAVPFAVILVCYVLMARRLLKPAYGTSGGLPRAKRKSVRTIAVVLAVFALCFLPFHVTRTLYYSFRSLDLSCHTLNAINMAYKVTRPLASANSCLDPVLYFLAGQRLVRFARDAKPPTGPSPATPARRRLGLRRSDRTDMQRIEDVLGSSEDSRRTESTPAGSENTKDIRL

[4] = Antagonist activity at P2Y14R (unknown origin); set-up: species or system Homo sapiens
P2Y purinoceptor 14 = molecular target: T3, P2Y purinoceptor 14 (Homo sapiens, UniProt Q15391); assay: Binding affinity to P2Y14R (unknown origin) expressed in CHO cells assessed as inhibition constant; assay type: cell-based
T3 sequence (Q15391 whole entry): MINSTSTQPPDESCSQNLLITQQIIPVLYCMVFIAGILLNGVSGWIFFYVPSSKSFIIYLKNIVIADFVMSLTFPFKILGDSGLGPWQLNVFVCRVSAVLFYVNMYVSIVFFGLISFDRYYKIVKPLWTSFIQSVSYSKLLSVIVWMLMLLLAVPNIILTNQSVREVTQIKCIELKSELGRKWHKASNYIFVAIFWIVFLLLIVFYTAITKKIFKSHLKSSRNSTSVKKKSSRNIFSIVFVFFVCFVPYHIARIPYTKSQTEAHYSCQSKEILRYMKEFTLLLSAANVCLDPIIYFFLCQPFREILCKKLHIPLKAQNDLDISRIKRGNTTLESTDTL

P2Y purinoceptor 12 [5] = molecular target: T1, P2Y purinoceptor 12; assay: Antagonist activity at P2Y12R (unknown origin)
[6] = Inhibition of platelet aggregation in human platelet rich plasma preincubated for 5 mins followed by aggregation inducer addition and measured after 5 mins by light transmission aggregation method; assay type: functional
P2Y purinoceptor 12 [7] = molecular target: T1, P2Y purinoceptor 12; assay: Binding affinity to human P2Y12R expressed in CHO cells assessed as dissociation constant SPR assay

T1 sequence (Q9H244 whole entry): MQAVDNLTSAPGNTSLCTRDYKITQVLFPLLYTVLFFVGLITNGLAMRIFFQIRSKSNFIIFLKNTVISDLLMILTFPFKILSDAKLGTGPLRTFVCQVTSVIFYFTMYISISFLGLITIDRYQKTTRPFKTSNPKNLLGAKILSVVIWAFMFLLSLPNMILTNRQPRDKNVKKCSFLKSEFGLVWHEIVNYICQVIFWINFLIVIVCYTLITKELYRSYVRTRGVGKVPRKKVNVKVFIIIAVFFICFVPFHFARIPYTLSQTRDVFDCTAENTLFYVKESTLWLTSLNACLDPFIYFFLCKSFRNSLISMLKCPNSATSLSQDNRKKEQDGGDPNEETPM

IC50 (P2Y purinoceptor 12 [1]): 97 nM
SMILES: CCOC(=O)N1CCN(C(=O)[C@H](CCC(=O)O)NC(=O)c2cc(OC(C)(C)C(=O)OCC)c3ccc(C)cc3n2)CC1

IC50 (P2Y purinoceptor 1 [2]): 1100 nM
SMILES: Cc1nc(/N=N/c2cc([N+](=O)[O-])ccc2Cl)c(COP(=O)(O)O)c(C=O)c1O

IC50 (P2Y purinoceptor 12 [1]): 290 nM
SMILES: CCOC(=O)N1CCN(C(=O)[C@H](CCC(=O)O)NC(=O)c2cc(OC(C)(C)C(=O)O)c3ccc(C)cc3n2)CC1

Ki (P2Y purinoceptor 1 [3]): 0.79 nM
SMILES: CNc1nc(I)nc2c1ncn2[C@H]1C[C@H](OP(=O)(O)O)[C@]2(COP(=O)(O)O)C[C@H]12

IC50 (P2Y purinoceptor 1 [2]): 660 nM
SMILES: Cc1nc(/N=N/c2ccc(Cl)c([N+](=O)[O-])c2)c(COP(=O)(O)O)c(C=O)c1O

IC50 (P2Y purinoceptor 2): 10900 nM
SMILES: Cc1cc(O)c(C2=Nc3cc(C(F)(F)F)ccc3SC(c3cccc(O)c3)C2)c(=O)o1 (stereo not drawn)

IC50 [4]: 12.8 nM
SMILES: O=C(O)c1cc(-c2ccc(-c3cn([C@@H]4O[C@H](CO)[C@@H](O)[C@H](O)[C@H]4O)nn3)cc2)c2ccc(-c3ccc(C(F)(F)F)cc3)cc2c1

IC50 [4]: 5.12 nM
SMILES: CC(NC(=O)C(C)c1ccc(-c2ccccc2)c(F)c1)C(=O)O (stereo not drawn)

Ki (P2Y purinoceptor 14): 0.08 nM
SMILES: N=C1C=CC2=C(c3ccc(C(=O)NCCCCCCn4cc(CCCCN5CCC(c6ccc(-c7cc(C(=O)O)cc8cc(-c9ccc(C(F)(F)F)cc9)ccc78)cc6)CC5)nn4)cc3C(=O)O)C3C=CC(N)=C(S(=O)(=O)O)C3OC2C1S(=O)(=O)O (stereo not drawn)

IC50 [4]: 2.4 nM
SMILES: O=C(O)c1cc(-c2ccc(C3CCN(CCc4cn([C@@H]5O[C@H](CO)[C@@H](O)[C@H](O)[C@H]5O)nn4)CC3)cc2)c2ccc(-c3ccc(C(F)(F)F)cc3)cc2c1

IC50 (P2Y purinoceptor 12 [5]): < 10000 nM
SMILES: CNc1cc2[nH]c(=O)n(-c3ccc(NC(=O)NS(=O)(=O)c4ccc(Cl)s4)cc3)c(=O)c2cc1F [ELINOGREL]

IC50 [6]: 14 nM
Kd (P2Y purinoceptor 12 [7]): 1.5 nM
SMILES: CCCCOC(=O)N1CCN(C(=O)[C@H](CP(=O)(O)O)NC(=O)c2cc(N3CC[C@H](OC)C3)nc(-c3ccccc3)n2)CC1 [SELATOGREL]
